Measured values: patent US5091392A, “Substituted (quinolin-2-yl-methoxy)phenyl-acyl-sulphon-amides and -cyanamides, processes for their preparation and their use in medicaments” (Bayer Aktiengesellschaft, priority 1989, dated 1992)

test system: lipoxygenase; assay: lipoxygenase inhibition: release of leucotriene B4 (LTB4) from polymorphonuclear rat leucocytes (PMNL) after Ca ionophore, reverse phase HPLC; format: cell-based; conditions: LTB4 release from polymorphonuclear rats leucocytes (PMNL), read-out: LO inhibition IC50
Experimental: The pharmacological activity data of the substances according to the invention are determined by the following method: As a measure of the lipoxygenase inhibition, the release of leucotriene B4 (LTB4) from polymorphonuclear rats leucocytes (PMNL) was determined after addition of substances and Ca ionophore by means of reverse phase HPLC according to Borgeat, P. et al., Proc. Nat. Acad. Sci., 76, 2148-2152 (1979). The in vivo activity of the compounds was detected using the mouse ear inflammation model according to Young, J. M. et al., J. of Investigative Dermatology, 82, 367-371 (1984).

Row | IC50 | Compound
1 | 27 nM | CS(=O)(=O)NC(=O)C(c1ccc(OCc2ccc3ccccc3n2)cc1)C1CCCC1 (stereo not drawn) [Example 1]
2 | 33 nM | CN(C(=O)C(c1ccc(OCc2ccc3ccccc3n2)cc1)C1CCCC1)S(=O)(=O)C(F)(F)F (stereo not drawn) [Example 6, N-Methyl-N-{1-[4-(quinolin-2-yl-methoxy)phenyl]-1-cyclopentyl-acetyl}-trifluoromethanesulphonamide]
3 | 24 nM | N#CNC(=O)C(c1ccc(OCc2ccc3ccccc3n2)cc1)C1CCCC1 (stereo not drawn) [Example 7, N-{1-[4-(Quinolin-2-yl-methoxy)phenyl]-1-cyclopentyl}-acetyl-cyanamide]
